Reference: patent publication EP2582674B1 (Cymabay Therapeutics, Inc., priority 2010, dated 2011)

target: T1, human GPR120 (Homo sapiens, UniProt Q5NUL3); experiment: Intracellular Ca2+ assay in human GPR120 stable cell line (FLIPR Calcium 4 dye, Flexstation); type: cell-based; conditions: HEK293, % activity at 2.5 µM compared to the maximal activity of the compound of Example 25 at 2.5 µM (=100%); HEK293 cells co-expressing Gqi5; read-out: % Activity (Ex. 25 Reference Compound)
T1 construct: host or cells: HEK293 cells co-expressing Gqi5
T1 sequence (Q5NUL3 1-361): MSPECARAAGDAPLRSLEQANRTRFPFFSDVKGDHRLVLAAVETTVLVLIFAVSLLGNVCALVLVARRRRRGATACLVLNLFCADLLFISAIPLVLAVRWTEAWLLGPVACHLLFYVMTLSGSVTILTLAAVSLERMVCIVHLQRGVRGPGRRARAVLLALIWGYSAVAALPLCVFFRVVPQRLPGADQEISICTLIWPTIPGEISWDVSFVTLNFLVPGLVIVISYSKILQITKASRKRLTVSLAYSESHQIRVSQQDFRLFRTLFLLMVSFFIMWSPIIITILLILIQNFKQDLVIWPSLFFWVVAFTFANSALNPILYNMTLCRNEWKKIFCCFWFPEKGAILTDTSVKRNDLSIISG
Description: Human GPR120 stable cell line was purchased from Multispan Inc (26219 Eden Landing Road, Hayward, CA94545). This GPR120 cell line was generated in HEK293 cells co-expressing Gqi5. In this cell line, the Flag epitope tag (DYKDDDDK) was fused to the amino terminus of human GPR120 protein.
The concentration of intracellular Ca^2+ was measured as described below. Human GPR120 cells were plated in 96 well plates (Poly-D-Lysine coated black/clear Plate, Greiner Bio-One) at 70,000 cells per well and cultured overnight in conditions of 37°C and 5% CO2. A Ca^2+ assay dye stock solution was prepared by adding 10 mL of assay buffer (HBSS/20mM HEPES, pH 7.4) to FLIPR Calcium 4 Assay Bulk Kit (Molecular Devices). The 10 mL of Ca^2+ assay dye solution was prepared by further diluting 0.5 mL of Ca^2+ assay dye stock solution with 10 mL of assay buffer. The medium of the cells was removed and immediately 100 µL of the Ca^2+ assay dye solution was dispensed into each well followed by incubation at 37°C and 5% CO2 for 50 minutes to incorporate the Ca^2+ dye into the cells. The cell plate was then placed in the Flexstation (Molecular Devices) for 20 minutes at 37°C. Compounds were dissolved in 100% DMSO and diluted to desired concentrations with assay buffer and placed in the Flexstation simultaneously with the cell plate for 20 minute incubation at 37°C prior to reading. Fluorescence intensity was measured immediately following compound addition (25 µL/well) on the Flexstation at an excitation wavelength of 485 nm and an emission wavelength of 525 with 515 nm auto cutoff. The resulting increase in fluorescence intensities corresponds to increases in intracellular Ca^2+ levels.
Compounds were dissolved in 100% DMSO to a concentration of 20 mM to provide stock solutions. To determine activity against human GPR120, compounds were added with human GPR120 stably expressing cells (described above), at eight desired concentrations ranging from 0.00001 to 20 µM, in 96 well plates and fluorescence intensities were measured for 90 seconds with 2-second intervals. An EC50 value (concentration of the GPR120 agonist where 50% of the agonist's maximal activity is observed) was calculated using the changes (Max-Min) of fluorescence intensity.
To determine percent activity for a tested compound, the fluorescence intensity value obtained at a particular concentration were compared to the maximal fluorescence intensity value obtained for reference compound GW9508 (4-[[(3-phenoxyphenyl)methyl]amino]benzene propanoic acid; British Journal of Pharmacology 2006 148, 619-628) or the compound of Example 25. When GW9508 was used as the reference compound, the maximal activity of GW9508 at 6.7µM was designated as 100% activity. When the compound of Example 25 was used as the reference compound, the maximal activity of the compound of Example 25 at 2.5 µM was designated as 100% activity. Typically, the GW9508 activity reached a maximum at a concentration of approximately 6.7 µM and typically the compound of Example 25 reached a maximum activity at approximately 2.5µM. […]

Row | SMILES | activity at 2.5 µM [%]
1 | Cc1cc(OCC(=O)O)ccc1OCc1cc(Cl)cc2c1OC(C)(C)C2 [Example 103, 2-(4-((5-chloro-2,2-dimethyl-2,3-dihydrobenzofuran-7-yl)methoxy)-3-methylphenoxy)acetic acid] | 99
2 | [2H]C([2H])(Oc1ccc(CC(C)C(=O)O)cc1C(F)(F)F)c1cc(F)cc2c1OC(C)(C)C2 (stereo not shown) [Example 231, 3-(4-(dideuterio(5-fluoro-2,2-dimethyl-2,3-dihydrobenzofuran-7-yl)methoxy)-3-(trifluoromethyl)phenyl)-2-methylpropanoic acid] | 101
3 | CC1(C)Cc2cc(F)cc(COc3ccc4cc(C(=O)O)ccc4c3)c2O1 [Example 114, 6-((5-fluoro-2,2-dimethyl-2,3-dihydrobenzofuran-7-yl)methoxy)-2-naphthoic acid] | 124
4 | CC1(C)Cc2cc(Cl)cc(COc3ccc4c(c3)CC[C@H]4CC(=O)O)c2O1 [Example 176, (S)-2-(5-((5-chloro-2,2-dimethyl-2,3-dihydrobenzofuran-7-yl)methoxy)-2,3-dihydro-1H-inden-1-yl)acetic acid] | 138
5 | CCCc1cc(OCc2cc(Cl)cc3c2OC(C)(C)C3)c(F)cc1CCC(=O)O [Example 73, 3-(4-((5-chloro-2,2-dimethyl-2,3-dihydrobenzofuran-7-yl)methoxy)-5-fluoro-2-propylphenyl)propanoic acid] | 115
6 | Cc1cc(CCC(=O)O)c(C)c(C)c1OCc1cc(F)cc2c1OC(C)(C)C2 [Example 254, 3-(4-((5-fluoro-2,2-dimethyl-2,3-dihydrobenzofuran-7-yl)methoxy)-2,3,5-trimethylphenyl) propanoic acid] | 146
7 | CC(CC(=O)O)c1cc(F)c(OCc2cc(Cl)cc3c2OC(C)(C)C3)c(F)c1 (stereo not shown) [Example 106, 3-(4-((5-chloro-2,2-dimethyl-2,3-dihydrobenzofuran-7-yl)methoxy)-3,5-difluorophenyl)butanoic acid] | 155
8 | CCc1cc(OCc2cccc3c2CC(C)(C)O3)ccc1CCC(=O)O [Example 140, 3-(4-((2,2-dimethyl-2,3-dihydrobenzofuran-4-yl)methoxy)-2-ethylphenyl)propanoic acid] | 146
9 | CC1(C)Cc2c(COc3ccc4c(c3)CC[C@@H]4CC(=O)O)cc(F)cc2O1 [Example 188, (R)-2-(5-((6-fluoro-2,2-dimethyl-2,3-dihydrobenzofuran-4-yl)methoxy)-2,3-dihydro-1H-inden-1-yl)acetic acid] | 104
10 | [2H]C([2H])(C(=O)O)C([2H])([2H])c1ccc(OCc2cc(F)cc3c2OC(C)(C)C3)c(F)c1CC [Example 243, 3-(2-ethyl-3-fluoro-4-((5-fluoro-2,2-dimethyl-2,3-dihydrobenzofuran-7-yl)methoxy)phenyl)-2,2,3,3-tetradeuteriopropanoic acid] | 155
11 | CC1(C)Cc2cc(F)cc(COc3ccc4c(c3)CCCC4CC(=O)O)c2O1 (stereo not shown) [Example 153, 2-(6-((5-fluoro-2,2-dimethyl-2,3-dihydrobenzofuran-7-yl)methoxy)-1,2,3,4-tetrahydronaphthalen-1-yl)acetic acid] | 107
12 | CC1(C)Cc2cc(F)cc(COc3ccc(CCC(=O)O)c(Cl)c3)c2O1 [Example 47, 3-(2-chloro-4-((5-fluoro-2,2-dimethyl-2,3-dihydrobenzofuran-7-yl)methoxy)phenyl)propanoic acid] | 111
13 | CC(C)Oc1ccc(Cl)cc1COc1cc2c(cc1F)C(CC(=O)O)CC2 (stereo not shown) [Example 257, 2-(5-((5-chloro-2-isopropoxybenzyl)oxy)-6-fluoro-2,3-dihydro-1H-inden-1-yl)acetic acid] | 125
14 | CC1(C)Cc2cc(Cl)cc(COc3ccccc3CCC(=O)O)c2O1 [Example 250, 3-(2-((5-chloro-2,2-dimethyl-2,3-dihydrobenzofuran-7-yl)methoxy)phenyl)propanoic acid] | 10.2

More lines, now with the values ahead:

Row | activity at 2.5 µM [%] | SMILES
15 | 125 | CC(Cc1ccc(OCc2c(F)ccc3c2CC(C)(C)O3)cc1)C(=O)O (stereo not shown) [Example 96, 3-(4-((5-fluoro-2,2-dimethyl-2,3-dihydrobenzofuran-4-yl)methoxy)phenyl)-2-methylpropanoic acid]
16 | 47 | CC(=O)Nc1cc(COc2ccc(CC(C)C(=O)O)cc2)c2c(c1)CC(C)(C)O2 (stereo not shown) [Example 123, 3-(4-((5-acetamido-2,2-dimethyl-2,3-dihydrobenzofuran-7-yl)methoxy)phenyl)-2-methylpropanoic acid]
17 | 165 | CC(Cc1ccc(OCc2cc(Cl)cc3c2OC2(CCCC2)C3)cc1)C(=O)O (stereo not shown) [Example 159, 3-(4-((5-chloro-3H-spiro[benzofuran-2,1'-cyclopentane]-7-yl)methoxy)phenyl)-2-methylpropanoic acid]

same assay, conditions: HEK293, % activity at 5 µM compared to the maximal activity of GW9508 at 6.7 µM (=100%); HEK293 cells co-expressing Gqi5; read-out: %Activity (GW9508 Reference Compound)

Row | SMILES | activity at 5 µM [%]
18 | Cc1cc(CC(C)C(=O)O)ccc1OCc1cc(F)cc2c1OC(C)(C)C2 (stereo not shown) [Example 6, 3-(4-((5-fluoro-2,2-dimethyl-2,3-dihydrobenzofuran-7-yl)methoxy)-3-methylphenyl)-2-methylpropanoic acid] | 147
19 | CC(Cc1cc(F)c(OCc2ccc(C(F)(F)F)c3c2OC(C)(C)C3)c(F)c1)C(=O)O (stereo not shown) [Example 32, 3-(4-((2,2-dimethyl-4-(trifluoromethyl)-2,3-dihydrobenzofuran-7-yl)methoxy)-3,5-difluorophenyl)-2-methylpropanoic acid] | 143

Continued, values first:

Row | activity at 5 µM [%] | SMILES
20 | 124 | Cc1cc(CC(C)C(=O)O)ccc1OCc1cc(Cl)cc2c1OC(C)(C)C2 (stereo not shown) [Example 11, 3-(4-((5-chloro-2,2-dimethyl-2,3-dihydrobenzofuran-7-yl)methoxy)-3-methylphenyl)-2-methylpropanoic acid]
21 | 109 | COc1cc(CC(C)C(=O)O)ccc1OCc1cc(Cl)cc2c1OC(C)(C)C2 (stereo not shown) [Example 15, 3-(4-((5-chloro-2,2-dimethyl-2,3-dihydrobenzofuran-7-yl)methoxy)-3-methoxyphenyl)-2-methylpropanoic acid]
22 | 83.4 | CC(Cc1cc(F)c(OCc2cc(Cl)cc3c2OC(C)(C)C3)c(F)c1)C(=O)O (stereo not shown) [Example 38, 3-(4-((5-chloro-2,2-dimethyl-2,3-dihydrobenzofuran-7-yl)methoxy)-3,5-difluorophenyl)-2-methylpropanoic acid]
23 | 72.2 | CC(Cc1ccc(OCc2cccc3c2CC(C)(C)O3)cc1)C(=O)O (stereo not shown) [Example 17, 3-(4-((2,2-dimethyl-2,3-dihydrobenzofuran-4-yl)methoxy)phenyl)-2-methylpropanoic acid]
24 | 116 | CC(Cc1ccc(OCc2cc(Cl)cc3c2OC(C)(C)C3)c(Cl)c1)C(=O)O (stereo not shown) [Example 12, 3-(3-chloro-4-((5-chloro-2,2-dimethyl-2,3-dihydrobenzofuran-7-yl)methoxy)phenyl)-2-methylpropanoic acid]
25 | 164 | CC(Cc1ccc(OCc2cc(Cl)cc3c2OC(C)(C)C3)cc1Cl)C(=O)O (stereo not shown) [Example 26, 3-(2-chloro-4-((5-chloro-2,2-dimethyl-2,3-dihydrobenzofuran-7-yl)methoxy)phenyl)-2-methylpropanoic acid]

same assay, conditions: eight concentrations from 0.00001 to 20 µM; changes (Max-Min) of fluorescence intensity

Row | EC50 [µM] | SMILES
26 | 1 to 10 | CC(=O)Nc1cc(COc2ccc(CC(C)C(=O)O)cc2)c2c(c1)CC(C)(C)O2 (stereo not shown) [Example 123, 3-(4-((5-acetamido-2,2-dimethyl-2,3-dihydrobenzofuran-7-yl)methoxy)phenyl)-2-methylpropanoic acid]
27 | ≤ 1 | CC(CCc1ccc(OCc2cc(Cl)cc3c2OC(C)(C)C3)cc1)C(=O)O (stereo not shown) [Example 172, 4-(4-((5-chloro-2,2-dimethyl-2,3-dihydrobenzofuran-7-yl)methoxy)phenyl)-2-methylbutanoic acid]
28 | > 10 | CC1(C)Cc2cc(Cl)cc(COc3ccccc3CCC(=O)O)c2O1 [Example 250, 3-(2-((5-chloro-2,2-dimethyl-2,3-dihydrobenzofuran-7-yl)methoxy)phenyl)propanoic acid]
